Reference: PubChem BioAssay (NCI)
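1) Cells in 96-well plates. 2) Compound, 48 h, 5 concentrations. 3) Linear interpolation between surrounding doses. 4) Unreached endpoint = highest concentration. At the TGI there is no net growth.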

How the values were obtained:
Assay in all cases: NCI anticancer screen, dose series, 48 h
SN12C renal = system: SN12C renal
SR leukemia = system: SR leukemia
SF-268 CNS = system: SF-268 CNS
CCRF-CEM leukemia = system: CCRF-CEM leukemia
CAKI-1 renal = system: CAKI-1 renal
COLO 205 colon = system: COLO 205 colon
KM12 colon = system: KM12 colon
IGROV1 ovarian = system: IGROV1 ovarian
MDA-N = system: MDA-N
EKVX NSCLC = system: EKVX NSCLC
A498 renal = system: A498 renal
NCI-H522 lung = system: NCI-H522 lung
TK-10 renal = system: TK-10 renal
MALME-3M melanoma = system: MALME-3M melanoma
OVCAR-4 ovarian = system: OVCAR-4 ovarian
MOLT-4 leukemia = system: MOLT-4 leukemia
HCC-2998 colon = system: HCC-2998 colon
SNB-75 CNS = system: SNB-75 CNS
NCI-H23 lung = system: NCI-H23 lung
M14 melanoma = system: M14 melanoma
NCI-H460 lung = system: NCI-H460 lung
786-0 renal = system: 786-0 renal
OVCAR-8 ovarian = system: OVCAR-8 ovarian
HT29 colon = system: HT29 colon
OVCAR-5 ovarian = system: OVCAR-5 ovarian
SK-MEL-5 melanoma = system: SK-MEL-5 melanoma
ACHN renal = system: ACHN renal
SW-620 colon = system: SW-620 colon
SNB-19 CNS = system: SNB-19 CNS
MDA-MB-435 = system: MDA-MB-435
T-47D breast = system: T-47D breast
SK-OV-3 ovarian = system: SK-OV-3 ovarian
SF-539 CNS = system: SF-539 CNS
PC-3 prostate = system: PC-3 prostate
A549 NSCLC = system: A549 NSCLC
HS 578T breast = system: HS 578T breast
HOP-92 NSCLC = system: HOP-92 NSCLC
K-562 leukemia = system: K-562 leukemia
HCT-116 colon = system: HCT-116 colon
DU-145 prostate = system: DU-145 prostate
SK-MEL-28 melanoma = system: SK-MEL-28 melanoma
NCI/ADR-RES ovarian = system: NCI/ADR-RES ovarian
MCF7 breast = system: MCF7 breast
HOP-62 NSCLC = system: HOP-62 NSCLC
HL-60(TB) leukemia = system: HL-60(TB) leukemia
RXF 393 renal = system: RXF 393 renal
SF-295 CNS = system: SF-295 CNS
NCI-H226 lung = system: NCI-H226 lung
HCT-15 colon = system: HCT-15 colon
LOX IMVI melanoma = system: LOX IMVI melanoma
UACC-257 melanoma = system: UACC-257 melanoma
MDA-MB-231 breast = system: MDA-MB-231 breast
U251 CNS = system: U251 CNS
UO-31 renal = system: UO-31 renal
UACC-62 melanoma = system: UACC-62 melanoma
OVCAR-3 ovarian = system: OVCAR-3 ovarian
RPMI-8226 leukemia = system: RPMI-8226 leukemia
BT-549 breast = system: BT-549 breast
SK-MEL-2 melanoma = system: SK-MEL-2 melanoma

C[C@H](CCC(=O)NCC(=O)O)[C@H]1CC[C@H]2[C@@H]3[C@H](O)C[C@@H]4C[C@H](O)CC[C@]4(C)[C@H]3CC[C@]12C
TGI (SN12C renal): > 100 µM | TGI (SR leukemia): > 100 µM | TGI (SF-268 CNS): > 100 µM | TGI (CCRF-CEM leukemia): > 100 µM | TGI (CAKI-1 renal): > 100 µM | TGI (COLO 205 colon): > 100 µM | TGI (KM12 colon): > 100 µM | TGI (IGROV1 ovarian): > 100 µM | TGI (MDA-N): > 100 µM | TGI (EKVX NSCLC): > 100 µM | TGI (A498 renal): > 100 µM | TGI (NCI-H522 lung): > 100 µM | TGI (TK-10 renal): > 100 µM | TGI (MALME-3M melanoma): > 100 µM | TGI (OVCAR-4 ovarian): > 100 µM | TGI (MOLT-4 leukemia): > 100 µM | TGI (HCC-2998 colon): > 100 µM | TGI (SNB-75 CNS): > 100 µM | TGI (NCI-H23 lung): > 100 µM | TGI (M14 melanoma): > 100 µM | TGI (NCI-H460 lung): > 100 µM | TGI (786-0 renal): > 100 µM | TGI (OVCAR-8 ovarian): > 100 µM | TGI (HT29 colon): > 100 µM | TGI (OVCAR-5 ovarian): > 100 µM | TGI (SK-MEL-5 melanoma): > 100 µM | TGI (ACHN renal): > 100 µM | TGI (SW-620 colon): > 100 µM | TGI (SNB-19 CNS): > 100 µM | TGI (MDA-MB-435): > 100 µM | TGI (T-47D breast): > 100 µM | TGI (SK-OV-3 ovarian): > 100 µM | TGI (SF-539 CNS): > 100 µM | TGI (PC-3 prostate): > 100 µM | TGI (A549 NSCLC): > 100 µM | TGI (HS 578T breast): > 100 µM | TGI (HOP-92 NSCLC): > 100 µM | TGI (K-562 leukemia): > 100 µM | TGI (HCT-116 colon): > 100 µM | TGI (DU-145 prostate): > 100 µM | TGI (SK-MEL-28 melanoma): > 100 µM | TGI (NCI/ADR-RES ovarian): > 100 µM | TGI (MCF7 breast): > 100 µM | TGI (HOP-62 NSCLC): > 100 µM | TGI (HL-60(TB) leukemia): > 100 µM | TGI (RXF 393 renal): > 100 µM | TGI (SF-295 CNS): > 100 µM | TGI (NCI-H226 lung): > 100 µM | TGI (HCT-15 colon): > 100 µM | TGI (LOX IMVI melanoma): > 100 µM | TGI (UACC-257 melanoma): > 100 µM | TGI (MDA-MB-231 breast): > 100 µM | TGI (U251 CNS): > 100 µM | TGI (UO-31 renal): > 100 µM | TGI (UACC-62 melanoma): > 100 µM | TGI (OVCAR-3 ovarian): > 100 µM | TGI (RPMI-8226 leukemia): > 100 µM | TGI (BT-549 breast): > 100 µM | TGI (SK-MEL-2 melanoma): > 100 µM

CCCCCCCCCCCCCCCCOCC(O)CO (stereo unspecified)
TGI (SN12C renal): 36.3 µM | TGI (SR leukemia): 28.5 µM | TGI (SF-268 CNS): 36 µM | TGI (CCRF-CEM leukemia): 27.3 µM | TGI (CAKI-1 renal): 35 µM | TGI (COLO 205 colon): 50.8 µM | TGI (KM12 colon): 32.1 µM | TGI (IGROV1 ovarian): 31.1 µM | TGI (MDA-N): 60.6 µM | TGI (EKVX NSCLC): 36.3 µM | TGI (A498 renal): 34.5 µM | TGI (NCI-H522 lung): 33.2 µM | TGI (TK-10 renal): 28.9 µM | TGI (MALME-3M melanoma): 36.1 µM | TGI (OVCAR-4 ovarian): 46.1 µM | TGI (MOLT-4 leukemia): 29.6 µM | TGI (HCC-2998 colon): 32.2 µM | TGI (NCI-H23 lung): 37.2 µM | TGI (M14 melanoma): 58 µM | TGI (NCI-H460 lung): 37.7 µM | TGI (786-0 renal): 32.8 µM | TGI (OVCAR-8 ovarian): 35.4 µM | TGI (HT29 colon): 31.8 µM | TGI (OVCAR-5 ovarian): 52.2 µM | TGI (SK-MEL-5 melanoma): 71.9 µM | TGI (ACHN renal): 33.6 µM | TGI (SW-620 colon): 41.2 µM | TGI (SNB-19 CNS): 52.4 µM | TGI (MDA-MB-435): 33.4 µM | TGI (T-47D breast): 46.2 µM | TGI (SK-OV-3 ovarian): 31.3 µM | TGI (SF-539 CNS): 31.5 µM | TGI (PC-3 prostate): 37.8 µM | TGI (A549 NSCLC): 44 µM | TGI (HS 578T breast): 39.7 µM | TGI (HOP-92 NSCLC): 41.9 µM | TGI (HCT-116 colon): 34.1 µM | TGI (DU-145 prostate): 34 µM | TGI (SK-MEL-28 melanoma): 33.3 µM | TGI (NCI/ADR-RES ovarian): 34.7 µM | TGI (MCF7 breast): 38.1 µM | TGI (HOP-62 NSCLC): 43 µM | TGI (HL-60(TB) leukemia): 23.4 µM | TGI (RXF 393 renal): 35.7 µM | TGI (SF-295 CNS): 30.3 µM | TGI (NCI-H226 lung): 40 µM | TGI (HCT-15 colon): 35.9 µM | TGI (LOX IMVI melanoma): 33.4 µM | TGI (UACC-257 melanoma): 35.7 µM | TGI (MDA-MB-231 breast): 35.6 µM | TGI (U251 CNS): 36.2 µM | TGI (UO-31 renal): 32.4 µM | TGI (UACC-62 melanoma): 35.2 µM | TGI (OVCAR-3 ovarian): 46.7 µM | TGI (RPMI-8226 leukemia): 37.4 µM | TGI (BT-549 breast): 47 µM | TGI (SK-MEL-2 melanoma): 40.1 µM
